Data reported in patent publication US8569264B2, “Antibacterial 4,5-substituted aminoglycoside analogs having multiple substituents” (ISIS Pharmaceuticals, Inc., priority 2005, dated 2013).
Converted amounts (≈) assume the structure as drawn.

What was measured:
[1] = system: E. coli ATCC 25922; test: MIC, E. coli ATCC 25922; type: cell-based; settings: for MIC: Escherichia coli
Experimental: (§1) The MIC assays are carried out in 150 μL volume in duplicate in 96-well clear flat-bottom plates. The bacterial suspension from an overnight culture growth in appropriate medium is added to a solution of test compound in 4% DMSO in water. Final bacterial inoculum is approximately 10^5-10^6 CFU/well. […] Both ampicillin and tetracycline are used as antibiotic-positive controls in each screening assay for S. pyogenes, E. coli imp-, E. coli, S. aureus, E. faecalis, K. pneumoniae and P. vulgaris. Ciprofloxacin is used as an antibiotic positive control in each screening assay for P. aeruginosa.
(§2) The following compounds were prepared using methods illustrated in the previous examples. The compounds were also examined in standard bacterial assays against E. Coli, S. Aureus, P. aurginosa, K. pneumoniae, P. vulgaris, and A. baumannii to determine activities. Each of the bacterial cultures that are available from ATCC (www.atcc.org) is identified by its ATCC number. A. baumannii is gentamicin sensitive Acinetobacter baumannii #2 from Walter Reed.

[2] = system: S. aureus ATCC 13709; test: MIC, S. aureus ATCC 13709; type: cell-based; settings: for MIC: Staphylococcus aureus
Experimental: as §1, §2

[3] = system: S. Aureus; test: MIC, S. Aureus; type: cell-based
Outline: (§3)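 Broth microdilution in duplicate, 150 μL: overnight-culture bacteria were added to compound in 4% DMSO in water. Final inoculum was about 10^5–10^6 CFU/well.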

[4] = target: 18S ribosomal subunit RNA target; test: Mass spectrometry based binding assay (FTICR), 18S; settings: FTICR mass spectrometry; Example 105
Outline: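 Ligands at varying concentrations were mixed with 2.5 or 5 μM RNA in 100 mM ammonium acetate with 33% isopropyl alcohol, then analysed by negative-mode ESI-FTICR. Complex/free RNA ion ratios plotted against ligand concentration were fitted to a second- or higher-order binding polynomial to give KD.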

[5] = system: P. aurginosa ATCC 25416; test: MIC, P. aurginosa ATCC 25416; type: cell-based
Experimental: as §1, §2

[6] = system: gentamicin sensitive Acinetobacter baumannii #2 from Walter Reed; test: MIC, A. baumannii WReed 2; type: cell-based; settings: for MIC: Acinetobacter baumannii
Experimental: as §1, §2

[7] = system: K. pneumoniae ATCC 10031; test: MIC, K. pneumoniae ATCC 10031; type: cell-based; settings: for MIC: Klebsiella pneumoniae
Experimental: as §1, §2

[8] = system: Staphylococcus aureus (Smith Strain ATCC 13709); test: Staphylococcus aureus mouse protection assay; type: in vivo, mice; settings: for # Dead mice/Total mice in group: Staph Conc. 10^6, 10% Mucin, the 14th table
Experimental: Two of the novel aminoglycoside compounds of the invention were examined for their anitbacterial activity against staphylococcus aureus. Mice were fed with autoclaved commercial food pellets and sterile water ad libitum. Animals were inoculated intraperitoneally with 0.5 mL/mouse of the indicated concentration of S. aureus (ATCC 13709) containing 10% mucin. There were 10 mice in each treatment group and compounds were administered subcutaneously one and 3 hour after infection. Compounds 15a (R4═R5═CH3) and 15j (R4═H, R5═(CH2)2C6H5)) were used at 75 mg/kg, 37.5 mg/kg, 18.8 mg/kg, 9.4 mg/kg, 4.7 mg/kg, 2.3 mg/kg, 1.17 mg/kg and 0.5 mg/kg. Amakacin, paromomycin and neomycin were used as the positive controls at concentrations of 2 mg/kg, 1 mg/kg and 0.5 mg/kg.
Test compound was administered as an aqueous buffer solution (phosphate buffered saline (PBS), pH=7.4).

[9] = system: E. Coli; test: MIC, E. Coli; type: cell-based
Outline: as §3

[10] = system: E. coli S30 bacterial extract (pBestLuc firefly luciferase reporter); test: Coupled bacterial transcription/translation assay; type: biochemical; settings: Example 105; read-out: Trans/Trans IC50
Outline: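 Coupled transcription/translation of firefly luciferase from 1 μg pBestLuc (tac promoter) in E. coli S30 extract, with or without test compound. Reaction 35 min at 37° C., then functional luciferase detected by luminescence.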

[11] = target: 16S ribosomal subunit RNA target; test: Mass spectrometry based binding assay (FTICR), 16S; settings: FTICR mass spectrometry; run at 100 nM RNA; Example 105
Outline: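 Binding to the 16S ribosomal subunit RNA target was measured by FTICR mass spectrometry. Ligands or ligand mixtures were prepared at several concentrations in 10 μL of aqueous 100 mM ammonium acetate buffer with 33% isopropyl alcohol. Samples were infused at 1 μL/min into a negative-mode electrospray source, and ions were held 1 sec in an RF-only hexapole. Complex/free RNA ratios versus ligand concentration were fitted to a binding polynomial to obtain KD.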

[12] = system: P. aurginosa ATCC 29248; test: MIC, P. aurginosa ATCC 29248; type: cell-based
Experimental: as §1, §2

[13] = system: P. vulgaris ATCC 8427; test: MIC, P. vulgaris ATCC 8427; type: cell-based; settings: for MIC: Proteus vulgaris
Experimental: as §1, §2

[14] = Example 110, listed as 9p - sample 1
[15] = Example 110, listed as 9p - sample 2

NCC1OC(OC2C(CO)OC(OC3C(O)C(N)CC(N)C3OC3OC(CO)C(O)C(O)C3N)C2OCCNCCc2ccccc2)C(N)C(O)C1O (centres unmarked) [Compound 9p]
MIC E. coli ATCC 25922 [1, 14]: 5 to 10 µM
MIC E. coli ATCC 25922 [1, 15]: >40 µM
MIC E. coli ATCC 25922 ([1]; Example 111): 5 to 10 µM
MIC S. aureus ATCC 13709 [2, 14]: 10 to 20 µM
MIC S. aureus ATCC 13709 [2, 15]: 1.2 to 2.5 µM
MIC S. aureus ATCC 13709 ([2]; Example 111): 0.6 to 1.3 µM
MIC S. Aureus ([3]; Example 105): 0.3 to 0.6 µM
Kd [4]: 1300 nM
MIC P. aurginosa ATCC 25416 ([5]; Example 110): >40 µM
MIC P. aurginosa ATCC 25416 ([5]; Example 111): >40 µM
MIC A. baumannii WReed 2 [6, 14]: 2.5-5^ uM
MIC A. baumannii WReed 2 [6, 15]: >40 µM
MIC A. baumannii WReed 2 ([6]; Example 111): >40 µM
MIC K. pneumoniae ATCC 10031 [7, 14]: 1.3 to 2.5 µM
MIC K. pneumoniae ATCC 10031 [7, 15]: >40 µM
MIC K. pneumoniae ATCC 10031 ([7]; Example 111): 2.5-5^ uM
# Dead mice/Total mice in group ([8]; 0.1 mg/kg in PBS pH=7.4): 5/10 (10% Mucin)
# Dead mice/Total mice in group ([8]; 0.5 mg/kg in PBS pH=7.4): 0/10 (10% Mucin)
# Dead mice/Total mice in group ([8]; 1 mg/kg in PBS pH=7.4): 0/10 (10% Mucin)
# Dead mice/Total mice in group ([8]; 2 mg/kg in PBS pH=7.4): 0/10 (10% Mucin)
# Dead mice/Total mice in group ([8]; 4.5 mg/kg in PBS pH=7.4): 0/10 (10% Mucin)
# Dead mice/Total mice in group ([8]; 9 mg/kg in PBS pH=7.4): 0/10 (10% Mucin)
# Dead mice/Total mice in group ([8]; 18 mg/kg in PBS pH=7.4): 0/10 (10% Mucin)
# Dead mice/Total mice in group ([8]; 37 mg/kg in PBS pH=7.4): 0/10 (10% Mucin)
# Dead mice/Total mice in group ([8]; 75 mg/kg in PBS pH=7.4): 0/10 (10% Mucin)
# Dead mice/Total mice in group ([8]; […] in PBS pH=7.4): 1/10 (10% Mucin)
smallest protective dose ([8]; protective at doses as small as, summary of the 14th table): 0.25 mg/kg
prevention of lethal bacterial infections in mice ([8]; result in words, summary of the 14th table): effective at preventing lethal bacterial infections in mice
MIC E. Coli. ([9]; Example 105): 3 to 6 µM
IC50 [10]: 1100 nM
Kd [11]: 100 nM
MIC P. aurginosa ATCC 29248 ([12]; Example 110): >40 µM
MIC P. aurginosa ATCC 29248 ([12]; Example 111): >40 µM
MIC P. vulgaris ATCC 8427 [13, 14]: 2.5-5^ uM
MIC P. vulgaris ATCC 8427 [13, 15]: 20 to 40 µM
MIC P. vulgaris ATCC 8427 ([13]; Example 111): >40 µM

NCC1OC(OC2C(CO)OC(OC3C(O)C(N)CC(N)C3OC3OC(CNCCCc4ccccc4)C(O)C(O)C3N)C2O)C(N)C(O)C1O (centres unmarked) [Compound 15l]
MIC E. coli ATCC 25922 ([1]; Example 111): 1.3 to 2.5 µM
MIC S. aureus ATCC 13709 ([2]; Example 111): 0.2 to 0.3 µM
MIC S. Aureus ([3]; Example 109): 0.3 to 0.6 µM
MIC P. aurginosa ATCC 25416 ([5]; Example 111): >40 µM
MIC A. baumannii WReed 2 ([6]; Example 111): 10 to 20 µM
MIC K. pneumoniae ATCC 10031 ([7]; Example 111): 0.6 to 1.3 µM
MIC E. Coli. ([9]; Example 109): 0.6 to 1.2 µM
MIC P. aurginosa ATCC 29248 ([12]; Example 111): >40 µM
MIC P. vulgaris ATCC 8427 ([13]; Example 111): >40 µM

NCC1OC(OC2C(CO)OC(OC3C(O)C(N)CC(N)C3OC3OC(CNCCc4ccc(F)cc4)C(O)C(O)C3N)C2O)C(N)C(O)C1O (centres unmarked) [Compound 15o]
MIC E. coli ATCC 25922 ([1]; Example 111): 1.3 to 2.5 µM
MIC S. aureus ATCC 13709 ([2]; Example 111): 0.3 to 0.6 µM
MIC S. Aureus ([3]; Example 109): 0.2 to 0.3 µM
MIC P. aurginosa ATCC 25416 ([5]; Example 111): >40 µM
MIC A. baumannii WReed 2 ([6]; Example 111): 10 to 20 µM
MIC K. pneumoniae ATCC 10031 ([7]; Example 111): 0.6 to 1.3 µM
MIC E. Coli. ([9]; Example 109): 0.6 to 1.2 µM
MIC P. aurginosa ATCC 29248 ([12]; Example 111): >40 µM
MIC P. vulgaris ATCC 8427 ([13]; Example 111): >40 µM

NCCCNCCO[C@H]1[C@H](O[C@@H]2[C@@H](O)[C@H](NC(=O)[C@@H](O)CCN)C[C@H](N)[C@H]2O[C@H]2O[C@H](CO)[C@@H](O)[C@H](O)[C@H]2N)O[C@H](CO)[C@H]1O[C@H]1O[C@@H](CN)[C@@H](O)[C@H](O)[C@H]1N [Compound 46b, N-1-haba-2″-O-(1,3-diamino)ethyl paromomycin]
MIC ([1]; ATCC25922, Example 110): 5 to 10 µM (≈ 4.08 to 8.17 µg/mL)
MIC ([2]; ATCC13709, Example 110): 1.2 to 2.5 µM (≈ 0.98 to 2.04 µg/mL)
MIC ([5]; Example 110): 1.3 to 2.5 µM (≈ 1.06 to 2.04 µg/mL)
MIC ([6]; Example 110): 2.5 to 5 µM (≈ 2.04 to 4.08 µg/mL)
MIC ([7]; ATCC10031, Example 110): 1.3 to 2.5 µM (≈ 1.06 to 2.04 µg/mL)
MIC ([12]; Example 110): 5 to 10 µM (≈ 4.08 to 8.17 µg/mL)
MIC ([13]; ATCC8427, Example 110): 5 to 10 µM (≈ 4.08 to 8.17 µg/mL)

NCC[C@H](O)C(=O)N[C@@H]1C[C@H](N)[C@@H](O[C@H]2O[C@H](CO)[C@@H](O)[C@H](O)[C@H]2N)[C@H](O[C@@H]2O[C@H](CO)[C@@H](O[C@H]3O[C@@H](CN)[C@@H](O)[C@H](O)[C@H]3N)[C@H]2O)[C@H]1O [Compound 67, N-1-haba paromomycin]
MIC ([1]; ATCC25922, Example 110): 2.5 to 5 µM (≈ 1.79 to 3.58 µg/mL)
MIC ([1]; ATCC25922, Example 111): 5 to 10 µM (≈ 3.58 to 7.17 µg/mL)
MIC ([2]; ATCC13709, Example 110): 20 to 40 µM (≈ 14.3 to 28.7 µg/mL)
MIC ([2]; ATCC13709, Example 111): 1.3 to 2.5 µM (≈ 0.932 to 1.79 µg/mL)
MIC ([3]; Staphylococcus aureus, Example 107): 1.3 to 2.5 µM (≈ 0.932 to 1.79 µg/mL)
MIC ([5]; Example 110): 1.3 to 2.5 µM (≈ 0.932 to 1.79 µg/mL)
MIC ([5]; Example 111): 10 to 20 µM (≈ 7.17 to 14.3 µg/mL)
MIC ([6]; Example 110): 2.5 to 5 µM (≈ 1.79 to 3.58 µg/mL)
MIC ([6]; Example 111): 5 to 10 µM (≈ 3.58 to 7.17 µg/mL)
MIC ([7]; ATCC10031, Example 110): 0.6 to 1.3 µM (≈ 0.43 to 0.932 µg/mL)
MIC ([7]; ATCC10031, Example 111): 0.6 to 1.3 µM (≈ 0.43 to 0.932 µg/mL)
MIC ([9]; Escherichia coli, Example 107): 5 to 10 µM (≈ 3.58 to 7.17 µg/mL)
MIC ([12]; Example 110): 5 to 10 µM (≈ 3.58 to 7.17 µg/mL)
MIC ([12]; Example 111): 5 to 10 µM (≈ 3.58 to 7.17 µg/mL)
MIC ([13]; ATCC8427, Example 110): 5 to 10 µM (≈ 3.58 to 7.17 µg/mL)
MIC ([13]; ATCC8427, Example 111): 2.5 to 5 µM (≈ 1.79 to 3.58 µg/mL)
